This note sets out measurements from patent publication US9695154B2, “Heteroaryl inhibitors of sumo activating enzyme” (MILLENNIUM PHARMACEUTICALS, INC., priority 2013, dated 2017).

SMILES strings stand for the structures. Where only a bound is given, the exact number is not on record here.

The target in the assay is T1, recombinant human SAE enzyme (Homo sapiens, UniProt Q9UBT2).
T1 sequence (Q9UBT2 1-640): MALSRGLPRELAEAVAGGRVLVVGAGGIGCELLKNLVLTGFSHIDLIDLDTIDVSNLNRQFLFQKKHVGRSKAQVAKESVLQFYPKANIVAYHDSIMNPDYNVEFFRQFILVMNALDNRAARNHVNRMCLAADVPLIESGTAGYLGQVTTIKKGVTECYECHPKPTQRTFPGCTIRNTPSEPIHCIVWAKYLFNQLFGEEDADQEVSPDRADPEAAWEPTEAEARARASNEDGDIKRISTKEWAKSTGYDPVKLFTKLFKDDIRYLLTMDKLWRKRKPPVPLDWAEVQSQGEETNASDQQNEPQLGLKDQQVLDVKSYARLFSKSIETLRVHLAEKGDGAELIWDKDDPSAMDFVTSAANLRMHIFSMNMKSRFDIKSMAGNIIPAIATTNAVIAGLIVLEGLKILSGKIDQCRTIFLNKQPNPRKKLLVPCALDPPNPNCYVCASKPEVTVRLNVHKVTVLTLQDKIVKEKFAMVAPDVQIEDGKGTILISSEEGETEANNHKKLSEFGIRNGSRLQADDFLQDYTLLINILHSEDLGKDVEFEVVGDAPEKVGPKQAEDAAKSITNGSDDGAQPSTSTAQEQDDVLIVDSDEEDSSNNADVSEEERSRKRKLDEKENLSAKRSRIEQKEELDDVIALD
T1 sequence (Q9UBE0 1-346 partner): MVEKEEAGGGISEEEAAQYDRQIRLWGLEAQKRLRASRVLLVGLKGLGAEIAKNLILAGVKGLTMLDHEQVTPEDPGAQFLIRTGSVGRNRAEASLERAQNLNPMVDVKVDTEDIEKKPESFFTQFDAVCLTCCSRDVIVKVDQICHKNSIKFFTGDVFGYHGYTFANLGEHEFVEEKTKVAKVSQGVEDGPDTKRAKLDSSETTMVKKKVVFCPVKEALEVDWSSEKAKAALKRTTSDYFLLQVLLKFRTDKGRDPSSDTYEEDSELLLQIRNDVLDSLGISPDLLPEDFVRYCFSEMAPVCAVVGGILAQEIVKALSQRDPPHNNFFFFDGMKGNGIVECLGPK
Kind of assay: SAE HTRF Enzyme Assay. The class given is biochemical. The settings on record: for IC50: class symbols A-C; for Percent Inhibition / inhibition at 0.111 µM: compound concentration 0.111 μM; for inhibition at 0.111 µM: read-out: Percent Inhibition. The method, boiled down: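 Recombinant human SAE (0.11 nM) transferred Sumo-Flag (0.125 μM) to Ubc9-GST (0.01 μM) with 0.5 μM ATP in HEPES pH 7.5, MgCl2, GSH, BSA; 105 min at 24° C. EDTA stop, Eu-cryptate anti-Flag and XL-APC anti-GST added, 2 h, then HTRF read. Values given as % inhibition at one concentration or IC50.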

Take `CC(c1ccc(Cl)o1)n1ccc(C(=O)c2cncnc2N[C@@H]2C[C@H](COS(N)(=O)=O)[C@@H](O)[C@@H]2F)c1` (single isomer, unassigned) [Compound I-364, [(1R,2R,3R,4R)-4-{[5-({1-[(1S)-1-(5-chloro-2-furyl)ethyl]-1H-pyrrol-3-yl}carbonyl)pyrimidin-4-yl]amino}-3-fluoro-2-hydroxycyclopentyl]methyl sulfamate or [(1R,2R,3R,4R)-4-{[5-({1-[(1R)-1-(5-chloro-2-furyl)ethyl]-1H-pyrrol-3-yl}carbonyl)pyrimidin-4-yl]amino}-3-fluoro-2-hydroxycyclopentyl]methyl sulfamate]: the IC50 is less than 10 nM. Also, the “Percent Inhibition” value (0.111 µM) was 99%.

Consider `Cc1cc(C(=O)c2cncnc2N[C@@H]2C[C@H](COS(N)(=O)=O)[C@@H](O)C2)nn1C(C)c1cccc(Cl)c1` (single isomer, unassigned) [Compound I-365, [(1R,2S,4R)-4-{[5-({1-[(1S)-1-(3-chlorophenyl)ethyl]-5-methyl-1H-pyrazol-3-yl}carbonyl)pyrimidin-4-yl]amino}-2-hydroxycyclopentyl]methyl sulfamate or [(1R,2S,4R)-4-{[5-({1-[(1R)-1-(3-chlorophenyl)ethyl]-5-methyl-1H-pyrazol-3-yl}carbonyl)pyrimidin-4-yl]amino}-2-hydroxycyclopentyl]methyl sulfamate], for which the half-inhibitory concentration (IC50) was in the range of 10 to 100 nM. Besides, the “Percent Inhibition” value (0.111 µM) stood at 79%.

With `CC(c1cccc(Br)n1)n1ccc(C(=O)c2cncnc2N[C@@H]2C[C@H](COS(N)(=O)=O)[C@@H](O)C2)n1` (single isomer, unassigned) [Compound I-366, [(1R,2S,4R)-4-{[5-({1-[(1S)-1-(6-bromopyridin-2-yl)ethyl]-1H-pyrazol-3-yl}carbonyl)pyrimidin-4-yl]amino}-2-hydroxycyclopentyl]methyl sulfamate or [(1R,2S,4R)-4-{[5-({1-[(1R)-1-(6-bromopyridin-2-yl)ethyl]-1H-pyrazol-3-yl}carbonyl)pyrimidin-4-yl]amino}-2-hydroxycyclopentyl]methyl sulfamate], the IC50 is 10 to 100 nM and the inhibition at 0.111 µM came out at 92%.

Turning to `COC(C)c1cc(C(=O)c2cncnc2N[C@@H]2C[C@H](COS(N)(=O)=O)[C@@H](O)C2)nn1Cc1cccc(Br)c1` (single isomer, unassigned) [Compound I-369a, [(1R,2S,4R)-4-{[5-({1-(3-bromobenzyl)-5-[(1S)-1-methoxyethyl]-1H-pyrazol-3-yl}carbonyl)pyrimidin-4-yl]amino}-2-hydroxycyclopentyl]methyl sulfamate or [(1R,2S,4R)-4-{[5-({1-(3-bromobenzyl)-5-[(1R)-1-methoxyethyl]-1H-pyrazol-3-yl}carbonyl)pyrimidin-4-yl]amino}-2-hydroxycyclopentyl]methyl sulfamate], the IC50 is less than 10 nM and the “Percent Inhibition” value was determined as 98%. Regarding `COC(C)c1cc(C(=O)c2cncnc2N[C@@H]2C[C@H](COS(N)(=O)=O)[C@@H](O)C2)nn1Cc1cccc(Br)c1` (single isomer, unassigned) [Compound I-369b, [(1R,2S,4R)-4-{[5-({1-(3-bromobenzyl)-5-[(1S)-1-methoxyethyl]-1H-pyrazol-3-yl}carbonyl)pyrimidin-4-yl]amino}-2-hydroxycyclopentyl]methyl sulfamate or [(1R,2S,4R)-4-{[5-({1-(3-bromobenzyl)-5-[(1R)-1-methoxyethyl]-1H-pyrazol-3-yl}carbonyl)pyrimidin-4-yl]amino}-2-hydroxycyclopentyl]methyl sulfamate], the IC50 is less than 10 nM and the “Percent Inhibition” value is on record as 98%.

Take `NS(=O)(=O)OC[C@H]1C[C@@H](Nc2ncncc2C(=O)c2ccn(S(=O)(=O)c3cccc(Br)c3)n2)[C@H](O)[C@@H]1O` [Compound I-1, [(1R,2R,3S,4R)-4-{[5-({1-[(3-bromophenyl)sulfonyl]-1H-pyrazol-3-yl}carbonyl)pyrimidin-4-yl]amino}-2,3-dihydroxycyclopentyl]methyl sulfamate]: the IC50 is less than 10 nM and the inhibition at 0.111 µM worked out at 98%. With `NS(=O)(=O)OC[C@@H]1C[C@@H](Nc2ncncc2C(=O)c2ccn(Cc3cccc(Br)c3)n2)C[C@@H]1O` [Compound I-2, {(1S,2S,4R)-4-[(5-{[1-(3-bromobenzyl)-1H-pyrazol-3-yl]carbonyl}pyrimidin-4-yl)amino]-2-hydroxycyclopentyl}methyl sulfamate], the inhibition at 0.111 µM came to 99%.

In the case of `NS(=O)(=O)OC[C@H]1C[C@@H](Nc2ncncc2C(=O)c2ccn(Cc3cccc(C(F)(F)F)n3)n2)C[C@@H]1O` [Compound I-3, [(1R,2S,4R)-2-hydroxy-4-({5-[(1-{[6-(trifluoromethyl)pyridin-2-yl]methyl}-1H-pyrazol-3-yl)carbonyl]pyrimidin-4-yl}amino)cyclopentyl]methyl sulfamate], the concentration for half-maximal inhibition (IC50) was less than 10 nM and the inhibition at 0.111 µM is 98%. For the compound `Cc1ccn(CCn2ccc(C(=O)c3cncnc3N[C@@H]3C[C@H](COS(N)(=O)=O)[C@@H](O)[C@H]3O)n2)n1` [Compound I-4, [(1R,2R,3S,4R)-2,3-dihydroxy-4-{[5-({1-[2-(3-methyl-1H-pyrazol-1-yl)ethyl]-1H-pyrazol-3-yl}carbonyl)pyrimidin-4-yl]amino}cyclopentyl]methyl sulfamate], the IC50 is 10 to 100 nM and the inhibition at 0.111 µM was 80%. As to `NS(=O)(=O)OC[C@H]1C[C@@H](Nc2ncncc2C(=O)c2ccn(CC3=CCOCC3)c2)[C@@H](F)[C@@H]1O` [Compound I-5, {(1R,2R,3R,4R)-4-[(5-{[1-(3,6-dihydro-2H-pyran-4-ylmethyl)-1H-pyrrol-3-yl]carbonyl}pyrimidin-4-yl)amino]-3-fluoro-2-hydroxycyclopentyl}methyl sulfamate], the IC50 fell in the range of 10 to 100 nM and the inhibition at 0.111 µM was 89%. Regarding `Cc1cc(C(=O)c2cncnc2N[C@@H]2C[C@@H](COS(N)(=O)=O)[C@@H](O)C2)nn1Cc1cccc(Br)c1` [Compound I-6, {(1S,2S,4R)-4-[(5-{[1-(3-bromobenzyl)-5-methyl-1H-pyrazol-3-yl]carbonyl}pyrimidin-4-yl)amino]-2-hydroxycyclopentyl}methyl sulfamate], the concentration for half-maximal inhibition (IC50) is less than 10 nM and the inhibition at 0.111 µM was found to be 99%. Consider `NS(=O)(=O)OC[C@H]1C[C@@H](Nc2ncncc2C(=O)c2ccn(Cc3cccc(C(F)(F)F)c3)c2)[C@@H](F)[C@@H]1O` [Compound I-7, [(1R,2R,3R,4R)-3-fluoro-2-hydroxy-4-{[5-({1-[3-(trifluoromethyl)benzyl]-lH-pyrrol-3-yl}carbonyl)pyrimidin-4-yl]amino}cyclopentyl]methyl sulfamate], for which the IC50 is less than 10 nM and the inhibition at 0.111 µM turned out to be 99%.

With `NS(=O)(=O)OC[C@H]1C[C@@H](Nc2ncncc2C(=O)c2ccn(Cc3cccc(Cl)n3)c2)[C@@H](F)[C@@H]1O` [Compound I-8, [(1R,2R,3R,4R)-4-{[5-({1-[(6-Chloropyridin-2-yl)methyl]-1H-pyrrol-3-yl}carbonyl)pyrimidin-4-yl]amino}-3-fluoro-2-hydroxycyclopentyl]methyl sulfamate], the IC50 was less than 10 nM and the inhibition at 0.111 µM was determined as 99%. On to `NS(=O)(=O)OC[C@H]1C[C@@H](Nc2ncncc2C(=O)c2ccn(Cc3cccc(Br)c3)n2)C[C@@H]1O` [Compound I-11, {(1R,2S,4R)-4-[(5-{[1-(3-bromobenzyl)-1H-pyrazol-3-yl]carbonyl}pyrimidin-4-yl)amino]-2-hydroxycyclopentyl}methyl sulfamate], for which the inhibition at 0.111 µM worked out at 100%. As for `NS(=O)(=O)OC[C@H]1C[C@@H](Nc2ncncc2C(=O)c2ccn(CC#CCC3CCOCC3)n2)C[C@@H]1O` [Compound I-12, [(1R,2S,4R)-2-hydroxy-4-{[5-({1-[4-(tetrahydro-2H-pyran-4-yl)but-2-yn-1-yl]-1H-pyrazol-3-yl}carbonyl)pyrimidin-4-yl]amino}cyclopentyl]methyl sulfamate], the IC50 lay within 100 to 1000 nM and the inhibition at 0.111 µM worked out at 39%.

For the compound `NS(=O)(=O)OC[C@H]1C[C@@H](Nc2ncncc2C(=O)c2ccn(Cc3cccc(I)c3)c2)[C@@H](F)[C@@H]1O` [Compound I-13, {(1R,2R,3R,4R)-3-fluoro-2-hydroxy-4-[(5-{[1-(3-iodobenzyl)-1H-pyrrol-3-yl]carbonyl}pyrimidin-4-yl)amino]cyclopentyl}methyl sulfamate], the IC50 is less than 10 nM and the inhibition at 0.111 µM is 100%.
